# Like-named read-outs stand apart in the source and are kept apart here.
# Key:
# [1] = target: T1, Human Retinoic Acid Receptor Gamma (Homo sapiens, UniProt P13631); assay: RARγ transactivation cellular assay (luciferase reporter, Indigo Biosciences #IB02001); type: cell-based; conditions: for RARγ transactivation (in words): 0.1 μM, 1 μM and 10 μM; for RARγ receptor transactivation values (ratio: RLU of tested material/RLU of control): 24 h incubation
# T1 sequence (P13631 1-454): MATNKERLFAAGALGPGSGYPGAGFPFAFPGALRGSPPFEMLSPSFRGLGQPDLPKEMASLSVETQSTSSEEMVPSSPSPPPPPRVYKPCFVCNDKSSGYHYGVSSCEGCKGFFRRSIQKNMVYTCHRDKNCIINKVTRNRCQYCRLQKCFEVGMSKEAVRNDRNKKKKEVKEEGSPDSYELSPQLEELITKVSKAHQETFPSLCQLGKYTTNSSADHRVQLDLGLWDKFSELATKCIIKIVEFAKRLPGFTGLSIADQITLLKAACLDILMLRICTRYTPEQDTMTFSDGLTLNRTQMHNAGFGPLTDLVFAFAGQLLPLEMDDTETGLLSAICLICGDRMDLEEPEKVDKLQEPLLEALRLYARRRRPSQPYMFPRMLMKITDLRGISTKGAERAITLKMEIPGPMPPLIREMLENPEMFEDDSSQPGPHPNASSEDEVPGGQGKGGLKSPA
# Procedure: Test Method 1 RARγ Transactivation Cellular Assay
# This assay system uses non-human cells engineered to provide constitutive, high-level expression of the Human Retinoic Acid Receptor Gamma, a ligand-dependent transcription factor. Cells include the luciferase reporter gene functionally linked to a RARγ-responsive promoter. Thus, quantifying changes in luciferase expression in the treated reporter cells provides a sensitive measure of the changes in RARγ activity.
# Engineered cells are seeded in 96-well plates and treated with the assessed compounds at 3 concentrations: 0.1 μM, 1 μM and 10 μM. After 24 h incubation, treatment media are discarded and Luciferase detection reagent is added. Light emission from each assay well is quantified using a plate-reading luminometer.
# RARγ receptors = target: T2, RARγ receptors (Homo sapiens, UniProt P13631); assay: GenBLAzer RAR gamma cell-based assay, agonist mode (AG) and positive allosteric modulator mode (PAM); conditions: unit from horizontal axis of FIG. 1
# T2 sequence (P13631 185-419 limits assumed): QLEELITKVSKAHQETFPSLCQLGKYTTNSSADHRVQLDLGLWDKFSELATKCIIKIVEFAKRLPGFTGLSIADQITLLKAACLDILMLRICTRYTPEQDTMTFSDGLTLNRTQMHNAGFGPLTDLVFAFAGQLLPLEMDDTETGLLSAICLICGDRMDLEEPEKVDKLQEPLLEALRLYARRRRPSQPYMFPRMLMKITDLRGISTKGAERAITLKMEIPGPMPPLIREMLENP
# Procedure: Test Method 2 RARγ Receptors in Both Agonist Mode (AG) and Positive Allosteric Modulator Mode (PAM)
# Dose response activity on RARγ receptors in both agonist mode (AG) and Positive allosteric modulator mode (PAM) was tested using Invitrogen's GenBLAzer® RAR gamma cell-based assay according to the manufacturer's instructions.
# [2] = system: CRABP2 (cellular retinoic acid binding protein-II) gene expression; assay: CRABP2 gene expression in human skin explants (qPCR); type: cell-based; conditions: 48 h; for CRABP2 mRNA expression in skin explant: topical; for CRABP2 gene expression in human skin explants (in words): applied topically, 10 μM and 100 μM
# Procedure: (§1) Test Method 3 CRABP2 (Cellular Retinoic Acid Binding Protein-II) and HBEGF (Heparin-Binding Epidermal Growth Factor-Like Growth Factor) Gene Expression in Human Explants
# (§2) Human skin explants were prepared as described by Bellemère et al. (Journal of Investigative Dermatology (2008) 128, 542-548), treated with 4 μl of compound (1) or (2) (Cpd (1) and Cpd (2) in the figure) at 2 concentrations: 10 μM and 100 μM and incubated at 37° C., 5% CO2 in 6-well plates containing 1.5 ml of medium during 48 h. After 48 h, the epidermis of each explant is detached from the dermis and (i) lysed for RNA extraction with Qiagen Rneasy kit, (ii) reverse transcripted using the thermocycler iCycler from Biorad and Applied Biosystems kit and (iii) analyzed for gene expression by performing a qPCR using the CFX96 Biorad Q-PCR system and Power Sybergreen PCR master mix from Applied Biosystems. All steps were performed according to the manufacturer's instructions. […] Compounds (1) and (2), used at doses of 10 μM and 100 μM, elicit retinol-like bioactivity, as shown by the induction of CRABP2 and HB-EGF gene expression.
# [3] = system: HBEGF (heparin-binding epidermal growth factor-like growth factor) gene expression; assay: HBEGF gene expression in human skin explants (qPCR); type: cell-based; conditions: 48 h; for HB-EGF gene expression in skin explant: topical; for HBEGF gene expression in human skin explants (in words): applied topically, 10 μM and 100 μM
# Procedure: as §1, §2
# [4] = system: interleukin 8 (IL-8 mRNA); assay: Gene expression of inflammatory mediator interleukin 8 in skin explant; type: cell-based, human; conditions: 48 h; for IL-8 mRNA expression in skin explant: topical; for IL-8 mRNA expression as compared to Neutrogena RWR (in words): skin explant
# Procedure: as §2
# Test Method 4 Gene Expression of Inflammatory Mediator Interleukin 8 (IL-8 mRNA)
# The skin explant used in Test Method 3 was used to measure the expression of the gen for IL-8 mRNA.
# As depicted in the Figure below, IL-8 mRNA expression is lower in explant treated with both compounds (1) and (2) as compared to Neutrogena RWR.
# [5] = agonist mode, read-out: average EC50, dose response activity on RARγ in agonist mode
# [6] = positive allosteric modulator mode, read-out: average EC50, dose response activity on RARγ in positive allosteric modulator mode
# [7] = 10^−4M in vehicle (PG70/EtOH30)
# [8] = 10^−5M in vehicle (PG70/EtOH30)
RARγ transactivation (in words) [1],RARγ receptor transactivation values (ratio: RLU of tested material/RLU of control) ([1]; concentration 0.1 μM),RARγ receptor transactivation values (ratio: RLU of tested material/RLU of control) ([1]; concentration 1 μM),RARγ receptor transactivation values (ratio: RLU of tested material/RLU of control) ([1]; concentration 10 μM),EC50 (RARγ receptors; [5]) [nM],EC50 (RARγ receptors; [6]) [nM],CRABP2 gene expression in human skin explants (in words) [2],HBEGF gene expression in human skin explants (in words) [3],"IL-8 mRNA expression in skin explant [4, 7] [% control]","IL-8 mRNA expression in skin explant [4, 8] [% control]",IL-8 mRNA expression as compared to Neutrogena RWR (in words) [4],SMILES,"CRABP2 mRNA expression in skin explant [2, 7] [% control]","CRABP2 mRNA expression in skin explant [2, 8] [% control]","HB-EGF gene expression in skin explant [3, 7] [%]","HB-EGF gene expression in skin explant [3, 8] [%]"
showed RARγ transactivation,10.6988,8.4578,6.506,0.0831,0.0301,induced,induced,410,422,lower,"CC(/C=C/C=C(\C)c1ccc2c(c1)C(C)(C)C(C)(C)C2(C)C)=C\C(=O)O [Compound 1, (2E,4E,6E)-7-(1,1,2,2,3,3-hexamethyl-2,3-dihydro-1H-inden-5-yl)-3-methylocta-2,4,6-trienoic acid]",496,256,513,218
showed RARγ transactivation,5.5663,3.253,6.7229,7.1 ± 0.7,6.7 ± 2.7,induced,induced,690,334,lower,"C=C(c1ccc(C(=O)O)cc1)c1ccc2c(c1)C(C)(C)C(C)(C)C2(C)C [Compound 2, 4-(1-(1,1,2,2,3,3-hexamethyl-2,3-dihydro-1H-inden-5-yl)vinyl)benzoic acid]",340,191,358,173

# Reference: patent publication US10980725B2, “Cosmetic compositions and method of treating the skin” (Johnson & Johnson Consumer Inc., priority 2017, dated 2021)
